Measurements from BindingDB's records for PubMed 40104800 (Jinan University).

Molecular target: Eukaryotic elongation factor 2 kinase (mouse)
Test: Inhibition of eEF2K in mouse HT-22 cells preincubated for 20 mins followed by [33P]-ATP addition measured after 120 mins by radiometric Hotspot kinase assay

IC50: 136 µM
SMILES: C=C(c1[nH]c2ccccc2c1CN1C/C(=C/C)[C@@H]2CC(=O)c3[nH]c4ccccc4c3C[C@H]1C2C(=O)OC)[C@H]1CCN(C)C/C1=C\C (stereo partly specified)
